Assay results reported in US20250352529A1, “COMBINED USE OF M1 MUSCARINIC RECEPTOR AGONISTS AND M3 MUSCARINIC RECEPTOR ANTAGONISTS TO TREAT CANCER” (The United States Government As Represented By The …, priority 2024, published 2025).
pEC50, pIC50: −log10 of the molar value. Where two headings read alike, the source gives them in different places.

Columns and labels:
HT-29 human CRC cells = test: WST-1 cell proliferation assay, HT-29 cells; type: cell-based; conditions: HT-29 cells (CHRM1:3-low), 5 days; read-out: half-maximal effective concentration (EC50) for inhibition of CRC cell proliferation
Description: (§1) FIG. 6A) Treating H508 cells for 5 days with carbachol (carb), a non-selective muscarinic receptor agonist stimulates cell proliferation measured using the WST-1 Cell Proliferation Assay (Roche). Cont, control; Carb, carbachol. Solid black circles represent values for individual replicates. […] Cells were incubated with or without agents for 5 days. N=4. FIG. 6D). Maximal proliferation responses observed with increasing concentrations of McN-A-343 in H508 (square), HT-29 (triangle), and HCT116 (circle) human CRC cells. Cells were incubated with agents for 5 days. Dose-response curves created by nonlinear regression (GraphPad Prism).

HCT116 human CRC cells = test: WST-1 cell proliferation assay, HCT116 cells; type: cell-based
Description: as §1
(§2) Human colon cancer cell lines (H508, HCT116) were grown in complete culture medium in a 37° C. incubator with 5% CO2 and sub-cultured weekly. H508 or HCT116 cells were seeded in 96-well plates, allowed to adhere for 24 h and changed to serum-free culture medium. Cells were treated for 5 days with Xanomeline, a selective M1R agonist, and were pre-incubated for 30 min with Darifenacin, a selective M3R antagonist or Trospium, a non-selective MR antagonist. Cell proliferation and cytotoxicity were measured using the WST-1 and LDH colorimetric assays, respectively. Absorbance was measured at 440 nm and 490/680 nm, respectively, using a computer-interfaced plate reader.

H508 human CRC cells = test: WST-1 cell proliferation assay, H508 cells; type: cell-based; conditions: for change in cell proliferation: trospium 5-50 μM; for effect of antagonist preincubation on xanomeline dose-response curve (proliferation): trospium 50 μM, darifenacin 30 and 60 μM; for pIC50: Homo sapiens, read-out: half-maximal inhibitory concentration (IC50), cell proliferation
Description: as §1, §2

H508 CRC cells = test: LDH release cytotoxicity assay; type: cell-based, human; conditions: increasing doses of xanomeline +/− 30 or 60 μM darifenacin
Description: FIG. 7A-B show combining a selective M3R inhibitor (darifenacin) with an M1R-selective activator potentiates inhibition of cell proliferation without cell injury. […] Triton X-100 was the positive control for LDH release. Symbols represent means+/−SEM of 3-9 replicates.
To exclude cell toxicity with these drug concentration, cellular release of lactate dehydrogenase (LDH) was measured.
as §2

[1] = H508 cells, 5 days, agent alone
[2] = NCI-H508, 120 h, H508 cells, agent alone, 5 days

| Structure (SMILES) | change in cell proliferation (H508 human CRC cells; [1]) | effect of antagonist preincubation on xanomeline dose-response curve (proliferation) (H508 human CRC cells; H508 cells) | pIC50 (H508 human CRC cells; [2]) | further results |
| --- | --- | --- | --- | --- |
| C[N+](C)(C)CC#CCOC(=O)Nc1cccc(Cl)c1.[Cl-] [McN-A-343] | robustly and dose-dependently attenuated cell proliferation | – | – | pEC50 (HT-29 human CRC cells): 3.26; pEC50 (HCT116 human CRC cells; HCT116 cells (CHRM1:3-high), 5 days, read-out: half-maximal effective concentration (EC50) for inhibition of CRC cell proliferation): 5.10; pEC50 (H508 human CRC cells; H508 cells (CHRM1:3-low), 5 days, read-out: half-maximal effective concentration (EC50) for inhibition of CRC cell proliferation): 3.86 |
| C[N+](C)(C)CCOC(N)=O [carbachol, Carbachol] | two-fold increase in cell proliferation | – | – | – |
| NC(=O)C(c1ccccc1)(c1ccccc1)[C@@H]1CCN(CCc2ccc3c(c2)CCO3)C1 [darifenacin, Darifenacin] | – | shifted the xanomeline dose-response curve progressively leftward | 4.08 | – |
| O=C(O[C@H]1C[C@H]2CC[C@@H](C1)[N+]21CCCC1)C(O)(c1ccccc1)c1ccccc1 [trospium, Trospium] | did not alter cell proliferation | did not shift | – | – |
| CCCCCCOc1nsnc1C1=CCCN(C)C1 [xanomeline, Xanomeline] | robustly and dose-dependently attenuated cell proliferation | – | 4.48 | inhibition of cell proliferation compared to H508 cells (HCT116 human CRC cells; HCT116 cells, increasing xanomeline concentrations): attenuated at lower xanomeline concentrations; pIC50 (H508 human CRC cells; NCI-H508, H508 cells, xanomeline plus 30 μM darifenacin): 4.67; pIC50 (H508 human CRC cells; NCI-H508, H508 cells, xanomeline plus 60 μM darifenacin): 4.73; cell LDH leakage (H508 CRC cells): No cell LDH leakage was detected |
